Legend:
[1] = system: reserpine-induced catatonia; assay: Inhibition of reserpine-induced catatonia; assay type: in vivo, rat (male, OFA strain); settings: for Inhibition of reserpine-induced catatonia: 30 min before reserpine
Procedure: 1. Inhibition of reserpine-induced catatonia
After sufficient doses of reserpine have been administered to the rat, a series of symptoms occur, more particularly ptosis, catatonia and a drop in central temperature. These symptoms are caused by the depletion of the intragranular reserve pool of boigenetic amines at the synaptic terminals.
An oral dose of the compound to be studied in aqueous solution was administered to batches of 10 male rats of the OFA strain weighing about 150 to 200 g. Thirty minutes later a dose of 5 mg/kg of reserpine was given by intraperitoneal route. Three hours after the injection of reserpine, the animals were suspended by the four paws to a horizontally stretched wire fixed at 15 cm from the ground. The catatonic animals were those which maintained the position so given for at least 30 seconds. […] The maximum score was therefore 10 per batch. An identical trial was undertaken with control animals which received reserpine but none of the compounds being studied.

[2] = system: neuroleptic-induced catatonia; assay: Inhibition of neuroleptic-induced catatonia (prochlorperazine); assay type: in vivo, rat (male, OFA strain); settings: for Inhibition of the neuroleptic-induced catatonia: 30 min before prochlorperazine; for activity compared with amantadine, neuroleptic-induced catatonia: versus amantadine
Procedure: 2. Inhibition of neuroleptic-induced catatonia
The blocking of dopaminergic receptors by neuroleptics in the extra-pyramidal system induces catatonia in the rat. Catatonia is differentiated from sedative properties by means of the test used hereabove for reserpine-induced catatonia. The same system of scoring was also employed in the present case.
An oral dose of the compound to be studied in aqueous solution was administered to batches of 10 male rats of the OFA strain weighing about 150 to 200 g. […] Three hours after the injection of this latter compound, catatonia was measured. An identical trial was also carried out with control animals which received prochlorperazine but none of the compounds under study.
The scoring system, used was that given hereabove in Table I.

SMILES: C#CCC(N)(CCC)CCC [Compound 26, 1,1-Di-n-propyl-3-butyn-1-ylamine]
- Inhibition of reserpine-induced catatonia ([1]; 30 mg/kg oral): 1 (20 to 30% inhibition of catatonia in comparison with the controls (namely a score of 7 to 8 per studied batch))
- Inhibition of the neuroleptic-induced catatonia ([2]; 30 mg/kg oral): 4 (100% inhibition of catatonia in comparison with the controls (namely a score of 0 per studied batch))

SMILES: CCCC(CC)CC(C)(C)N (stereo not shown) [Compound 17, 1,1-Dimethyl-3-ethyl-n-hexylamine]
- Inhibition of reserpine-induced catatonia ([1]; 11 mg/kg oral): 1 (20 to 30% inhibition of catatonia in comparison with the controls (namely a score of 7 to 8 per studied batch))
- Inhibition of the neuroleptic-induced catatonia ([2]; 11 mg/kg oral): 2 (50% inhibition of catationia in comprison with the controls (namely a score of 5 per studied batch))

SMILES: CCCCCCCC(C)(C)N [Compound 10, 1,1-Dimethyl-n-octylamine]
- Inhibition of reserpine-induced catatonia ([1]; 20 mg/kg oral): 1 (20 to 30% inhibition of catatonia in comparison with the controls (namely a score of 7 to 8 per studied batch))
- Inhibition of the neuroleptic-induced catatonia ([2]; 50 mg/kg oral): 1 (20 to 30% inhibition of catatonia in comparison with the controls (namely a score of 7 to 8 per studied batch))

SMILES: CCCCC(C)(N)CC(C)C (stereo not shown) [Compound 8, 1-Methyl-1-isobutyl-n-pentylamine]
- Inhibition of reserpine-induced catatonia ([1]; 20 mg/kg oral): 1 (20 to 30% inhibition of catatonia in comparison with the controls (namely a score of 7 to 8 per studied batch))
- Inhibition of the neuroleptic-induced catatonia ([2]; 50 mg/kg oral): 4 (100% inhibition of catatonia in comparison with the controls (namely a score of 0 per studied batch))
- activity compared with amantadine, neuroleptic-induced catatonia [2]: twice as active

SMILES: CCCC(N)(CCC)C(C)C [Compound 19, 1-n-Propyl-1-isopropyl-n-butylamine]
- Inhibition of reserpine-induced catatonia ([1]; 6 mg/kg oral): 3 (70 to 80% inhibition of catatonia in comparison with the controls (namely a score of 2 or 3 per studied batch))
- Inhibition of the neuroleptic-induced catatonia ([2]; 6 mg/kg oral): 3 (70 to 80% inhibition of catatonia in comparison with the controls (namely a score of 2 or 3 per studied batch))

SMILES: CCC(N)(CC)CC [Compound 15, 1,1-Diethyl-n-propylamine]
- Inhibition of reserpine-induced catatonia ([1]; 50 mg/kg oral): 1 (20 to 30% inhibition of catatonia in comparison with the controls (namely a score of 7 to 8 per studied batch))
- Inhibition of the neuroleptic-induced catatonia ([2]; 50 mg/kg oral): 3 (70 to 80% inhibition of catatonia in comparison with the controls (namely a score of 2 or 3 per studied batch))

SMILES: CCCC(N)(CC)CC [Compound 14, 1,1-Diethyl-n-butylamine]
- Inhibition of reserpine-induced catatonia ([1]; 50 mg/kg oral): 3 (70 to 80% inhibition of catatonia in comparison with the controls (namely a score of 2 or 3 per studied batch))
- Inhibition of the neuroleptic-induced catatonia ([2]; 50 mg/kg oral): 3 (70 to 80% inhibition of catatonia in comparison with the controls (namely a score of 2 or 3 per studied batch))

SMILES: CCC=CC(N)(CC)CC [Compound 23, 1,1-Diethyl-2-penten-1-ylamine]
- Inhibition of reserpine-induced catatonia ([1]; 60 mg/kg oral): 1 (20 to 30% inhibition of catatonia in comparison with the controls (namely a score of 7 to 8 per studied batch))
- Inhibition of the neuroleptic-induced catatonia ([2]; 30 mg/kg oral): 1 (20 to 30% inhibition of catatonia in comparison with the controls (namely a score of 7 to 8 per studied batch))

SMILES: CCC=CC(N)(CCC)CCC [Compound 25, 1,1-Di-n-propyl-2-penten-1-ylamine]
- Inhibition of reserpine-induced catatonia ([1]; 6 mg/kg oral): 3 (70 to 80% inhibition of catatonia in comparison with the controls (namely a score of 2 or 3 per studied batch))
- Inhibition of the neuroleptic-induced catatonia ([2]; 6 mg/kg oral): 3 (70 to 80% inhibition of catatonia in comparison with the controls (namely a score of 2 or 3 per studied batch))

SMILES: CCC#CC(N)(CC)CC [Compound 22, 1,1-Diethyl-2-pentyn-1-ylamine]
- Inhibition of reserpine-induced catatonia ([1]; 60 mg/kg oral): 1 (20 to 30% inhibition of catatonia in comparison with the controls (namely a score of 7 to 8 per studied batch))
- Inhibition of the neuroleptic-induced catatonia ([2]; 30 mg/kg oral): 1 (20 to 30% inhibition of catatonia in comparison with the controls (namely a score of 7 to 8 per studied batch))

SMILES: CCCC(C)CC(C)(N)CC (stereo not shown) [Compound 7, 1,3-Dimethyl-1-ethyl-n-hexylamine]
- Inhibition of reserpine-induced catatonia ([1]; 20 mg/kg oral): 1 (20 to 30% inhibition of catatonia in comparison with the controls (namely a score of 7 to 8 per studied batch))
- Inhibition of the neuroleptic-induced catatonia ([2]; 40 mg/kg oral): 1 (20 to 30% inhibition of catatonia in comparison with the controls (namely a score of 7 to 8 per studied batch))

SMILES: CCC(C)(C)N [Compound 16, 1,1-Dimethyl-n-propylamine]
- Inhibition of reserpine-induced catatonia ([1]; 50 mg/kg oral): 1 (20 to 30% inhibition of catatonia in comparison with the controls (namely a score of 7 to 8 per studied batch))
- Inhibition of the neuroleptic-induced catatonia ([2]; 10 mg/kg oral): 1 (20 to 30% inhibition of catatonia in comparison with the controls (namely a score of 7 to 8 per studied batch))

SMILES: C=CCC(N)(CC=C)CC=C [Compound 11, 1,1-Di-(2-propen-1-yl)-3-buten-1-ylamine]
- Inhibition of reserpine-induced catatonia ([1]; 20 mg/kg oral): 1 (20 to 30% inhibition of catatonia in comparison with the controls (namely a score of 7 to 8 per studied batch))
- Inhibition of the neuroleptic-induced catatonia ([2]; 20 mg/kg oral): 1 (20 to 30% inhibition of catatonia in comparison with the controls (namely a score of 7 to 8 per studied batch))

SMILES: CCCC(N)(CCC)CCC
- score, reserpine-induced catatonia ([1]; 3 mg/kg): 4 (100% inhibition of catatonia in comparison with the controls (namely a score of 0 per studied batch))
- score, neuroleptic-induced catatonia ([2]; 3 mg/kg): 4 (100% inhibition of catatonia in comparison with the controls (namely a score of 0 per studied batch))

SMILES: CCC#CC(N)(CCC)CCC [Compound 24, 1,1-Di-n-propyl-2-pentyn-1-ylamine]
- Inhibition of reserpine-induced catatonia ([1]; 20 mg/kg oral): 1 (20 to 30% inhibition of catatonia in comparison with the controls (namely a score of 7 to 8 per studied batch))
- Inhibition of the neuroleptic-induced catatonia ([2]; 20 mg/kg oral): 2 (50% inhibition of catationia in comprison with the controls (namely a score of 5 per studied batch))

SMILES: C#CC(N)(CCC)CCC [Compound 21, 1,1-Di-n-propyl-2-propyn-1-ylamine]
- Inhibition of reserpine-induced catatonia ([1]; 30 mg/kg oral): 2 (50% inhibition of catationia in comprison with the controls (namely a score of 5 per studied batch))
- Inhibition of the neuroleptic-induced catatonia ([2]; 30 mg/kg oral): 1 (20 to 30% inhibition of catatonia in comparison with the controls (namely a score of 7 to 8 per studied batch))

SMILES: CCCC(N)(CCC)CC(C)C [Compound 5, 1-n-Propyl-1-isobutyl-n-butylamine]
- Inhibition of reserpine-induced catatonia ([1]; 20 mg/kg oral): 2 (50% inhibition of catationia in comprison with the controls (namely a score of 5 per studied batch))
- Inhibition of the neuroleptic-induced catatonia ([2]; 20 mg/kg oral): 4 (100% inhibition of catatonia in comparison with the controls (namely a score of 0 per studied batch))
- activity compared with amantadine, neuroleptic-induced catatonia [2]: five times more active than amantadine

SMILES: CCCC(N)(CCC)C(C)(C)C [Compound 20, 1-n-Propyl-1-tert-butyl-n-butylamine]
- Inhibition of reserpine-induced catatonia ([1]; 6 mg/kg oral): 2 (50% inhibition of catationia in comprison with the controls (namely a score of 5 per studied batch))
- Inhibition of the neuroleptic-induced catatonia ([2]; 50 mg/kg oral): 1 (20 to 30% inhibition of catatonia in comparison with the controls (namely a score of 7 to 8 per studied batch))

SMILES: CCCC(N)(CC(C)C)CC(C)C [Compound 18, 1,1-Diisobutyl-n-butylamine]
- Inhibition of reserpine-induced catatonia ([1]; 12 mg/kg oral): 2 (50% inhibition of catationia in comprison with the controls (namely a score of 5 per studied batch))
- Inhibition of the neuroleptic-induced catatonia ([2]; 12 mg/kg oral): 1 (20 to 30% inhibition of catatonia in comparison with the controls (namely a score of 7 to 8 per studied batch))

SMILES: CCCCC(N)(CC)CCC (stereo not shown) [Compound 4, 1-Ethyl-1-n-propyl-n-pentylamine]
- Inhibition of reserpine-induced catatonia ([1]; 20 mg/kg oral): 3 (70 to 80% inhibition of catatonia in comparison with the controls (namely a score of 2 or 3 per studied batch))
- Inhibition of the neuroleptic-induced catatonia ([2]; 20 mg/kg oral): 3 (70 to 80% inhibition of catatonia in comparison with the controls (namely a score of 2 or 3 per studied batch))

SMILES: CCCCC(C)CC(C)(C)N (stereo not shown) [Compound 13, 1,1,3-Trimethyl-n-heptylamine]
- Inhibition of reserpine-induced catatonia ([1]; 25 mg/kg oral): 1 (20 to 30% inhibition of catatonia in comparison with the controls (namely a score of 7 to 8 per studied batch))
- Inhibition of the neuroleptic-induced catatonia ([2]; 50 mg/kg oral): 1 (20 to 30% inhibition of catatonia in comparison with the controls (namely a score of 7 to 8 per studied batch))

SMILES: CCCC(N)(CC)CC(C)C (stereo not shown) [Compound 3, 1-Ethyl-1-isobutyl-n-butylamine]
- Inhibition of reserpine-induced catatonia ([1]; 20 mg/kg oral): 3 (70 to 80% inhibition of catatonia in comparison with the controls (namely a score of 2 or 3 per studied batch))
- Inhibition of the neuroleptic-induced catatonia ([2]; 20 mg/kg oral): 3 (70 to 80% inhibition of catatonia in comparison with the controls (namely a score of 2 or 3 per studied batch))
